Measured values as given in patent US20250066368A1, “DNA POLYMERASE THETA INHIBITOR AND USE THEREOF” (SHANGHAI APEIRON THERAPEUTICS COMPANY LIMITED, priority 2021, published 2025).

The compounds below were run against Polθ polymerase (Homo sapiens (Human), UniProt O75417) (assay: Polθ polymerase activity assay (PicoGreen method)). Settings: His-TEV-SUMO-tagged Polθ protein (amino acids 1792-2590), PicoGreen fluorescence, in vitro.
Polθ polymerase, sequence (O75417 1792-2590): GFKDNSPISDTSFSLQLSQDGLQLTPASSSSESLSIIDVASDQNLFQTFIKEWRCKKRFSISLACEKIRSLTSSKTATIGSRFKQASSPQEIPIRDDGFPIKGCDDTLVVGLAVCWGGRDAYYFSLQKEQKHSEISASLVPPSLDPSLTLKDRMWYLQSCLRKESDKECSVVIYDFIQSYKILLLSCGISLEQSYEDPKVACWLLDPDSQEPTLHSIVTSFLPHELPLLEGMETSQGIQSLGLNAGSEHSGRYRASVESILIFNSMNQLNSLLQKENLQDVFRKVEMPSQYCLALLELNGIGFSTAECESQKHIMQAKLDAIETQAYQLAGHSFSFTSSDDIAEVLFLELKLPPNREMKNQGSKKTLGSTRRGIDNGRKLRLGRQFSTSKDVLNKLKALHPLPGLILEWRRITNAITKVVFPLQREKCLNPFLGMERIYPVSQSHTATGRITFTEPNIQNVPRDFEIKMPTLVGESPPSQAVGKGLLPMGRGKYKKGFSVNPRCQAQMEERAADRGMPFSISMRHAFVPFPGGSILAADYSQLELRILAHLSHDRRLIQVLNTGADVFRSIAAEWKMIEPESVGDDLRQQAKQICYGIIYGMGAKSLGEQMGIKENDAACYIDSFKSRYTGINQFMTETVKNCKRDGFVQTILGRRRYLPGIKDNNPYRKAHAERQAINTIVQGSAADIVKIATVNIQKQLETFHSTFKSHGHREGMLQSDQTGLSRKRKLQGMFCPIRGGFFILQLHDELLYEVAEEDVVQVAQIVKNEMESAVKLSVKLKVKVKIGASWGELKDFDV
Format: biochemical
Experimental: The ability of compounds to inhibit Pol 0 polymerase activity was determined by the PicoGreen method in vitro. The His-TEV-SUMO-tagged Polθ protein (amino acids 1792-2590) expressed in E. coli was purified and stored in aliquots at -80° C. […] Test compounds were diluted in 100% DMSO and diluted three-fold into 10 concentration points in a dilution plate (Greiner-781280) using Bravo (Agilent) according to concentration requirements. The compounds diluted in DMSO were then diluted 20-fold in the assay buffer using Bravo. Further, 2 μl of diluted compounds were transferred to the assay plate (Corning-4512) using Bravo. The purified Pol 0 enzyme and primers ((primer strand: […] ID NO: 1):(template strand: […] A mixture containing 10 mM EDTA, 25 mM Tris pH 7.5, and a 1:200 diluted PicoGreen dye (Invitrogen-[…] the reaction. After 30 min of reaction at room temperature in the dark, fluorescence values were read on EnVision 2105 (PerkinElmer) using the Ex480 nm Em520 nm program, and the raw data was analyzed using XLfit to generate IC50 values. The results are shown in the table below.
CN(C(=O)[C@@H]1CNC(=O)N1c1cc(C(F)(F)F)c2cc[se]c2n1)c1ccc(F)c(Cl)c1F [Compound 33] gave an IC50 of at most 50 nM.
Work on CN(C(=O)[C@@H]1CNC(=O)N1c1cc(C(F)(F)F)c2ccsc2n1)c1ccc(F)c(Cl)c1F [Compound 14, (S)—N-(3-chloro-2,4-difluorophenyl)-N-methyl-2-oxo-3-(4-(trifluoromethyl)thieno[2,3-b]pyridin-6-yl)imidazolidine-4-carboxamide] yielded an IC50 of at most 50 nM.
CN(C(=O)[C@@H]1CNC(=O)N1c1cc(C(F)(F)F)c2c(n1)CCC2(F)F)c1ccc(F)c(Cl)c1F [Compound 11, (S)—N-(3-chloro-2,4-difluorophenyl)-3-(5,5-difluoro-4-(trifluoromethyl)-6,7-dihydro-5H-cyclopentadienyl[b]pyridin-2-yl)-N-methyl-2-oxoimidazolidine-4-carboxamide] was tested, and the IC50 was 50 to 500 nM.
For CN(C(=O)[C@@H]1CNC(=O)N1c1cc(C(F)(F)F)c2c(n1)CC[C@H]2O)c1ccc(F)c(Cl)c1F [Compound 6a], the IC50 was 500 to 5000 nM.
With CN(C(=O)[C@@H]1CNC(=O)N1c1cc(C(F)(F)F)c2ccn(C)c2n1)c1ccc(F)c(Cl)c1F [Compound 18, (S)—N-(3-chloro-2,4-difluorophenyl)-N-methyl-3-(1-methyl-4-(trifluoromethyl)-1H-pyrrolo[2,3-b]pyridin-6-yl)-2-oxoimidazolidine-4-carboxamide] the IC50 was 50 to 500 nM.
Compound CN(C(=O)[C@@H]1CNC(=O)N1c1cc(C(F)(F)F)c2c(n1)C(=O)CC2)c1ccc(F)c(Cl)c1F [Compound 13, (S)—N-(3-chloro-2,4-difluorophenyl)-N-methyl-2-oxo-3-(7-oxo-4-(trifluoromethyl)-6,7-dihydro-5H-cyclopenta[b]pyridin-2-yl)imidazolidine-4-carboxamide] has an IC50 of at most 50 nM.
CN(C(=O)[C@@H]1CNC(=O)N1c1cc(C(F)(F)F)c2c(ncn2C)n1)c1ccc(F)c(Cl)c1F [Compound 10, (S)—N-(3-chloro-2,4-difluorophenyl)-N-methyl-3-(1-methyl-7-(trifluoromethyl)-1H-imidazo[4,5-b]pyridin-5-yl)-2-oxoimidazolidine-4-carboxamide] was tested, and the IC50 was over 5000 nM.
CN(C(=O)[C@@H]1CNC(=O)N1c1ccc2c(n1)CCC2)c1ccc(F)c(Cl)c1F [Compound 2, (S)—N-(3-chloro-2,4-difluorophenyl)-3-(6,7-dihydro-5H-cyclopenta[b]pyridin-2-yl)-N-methyl-2-oxoimidazolidine-4-carboxamide] gave an IC50 of 500 to 5000 nM.
For O=C1OC[C@@H](c2nc(F)cn2-c2ccc(F)c(Cl)c2)N1c1cc(C(F)(F)F)c2ccsc2n1 [Compound 30, (R)-4-(1-(3-chloro-4-fluorophenyl)-4-fluoro-1H-imidazol-2-yl)-3-(4-(trifluoromethyl)thieno[2,3-b]pyridin-6-yl)oxazolidin-2-one], the IC50 was at most 50 nM.
With CN(C(=O)[C@@H]1CNC(=O)N1c1cc(C(F)(F)F)n2cccc2n1)c1ccc(F)c(Cl)c1F [Compound 22, (S)—N-(3-chloro-2,4-difluorophenyl)-N-methyl-2-oxo-3-(4-(trifluoromethyl)pyrrolo[1,2-a]pyrimidin-2-yl)imidazolidine-4-carboxamide] the IC50 was at most 50 nM.
For CN(C(=O)[C@@H]1CNC(=O)N1c1cc(C(F)(F)F)c2c(n1)CC=C2)c1ccc(F)c(Cl)c1F (single isomer, unassigned) [Compound 9b], the IC50 was at most 50 nM.
CN(C(=O)[C@@H]1CNC(=O)N1c1cc(C2CC2)c2ncsc2n1)c1ccc(F)c(Cl)c1F [Compound 31, [(4S)-3-(7-cyclopropyl (1,3-thiazolo[4,5-e]pyridin-5-yl))-2-oxoimidazolidin-4-yl]-N-(3-chloro-2,4-difluorophenyl)-N-methylformamide] gave an IC50 of at most 50 nM.
CN(C(=O)[C@@H]1CNC(=O)N1c1cc(C(F)(F)F)c2c(n1)CCC2)c1ccc(F)c(Cl)c1F [Compound 1, (S)—N-(3-chloro-2,4-difluorophenyl)-N-methyl-2-oxo-3-(4-(trifluoromethyl)-6,7-dihydro-5H-cyclopenta[b]pyridin-2-yl)imidazolidine-4-carboxamide] gave an IC50 of at most 50 nM.
CN(C(=O)[C@@H]1CNC(=O)N1c1cc(C(F)(F)F)c2c(n1)CCC2=O)c1ccc(F)c(Cl)c1F [Compound 3, (S)—N-(3-chloro-2,4-difluorophenyl)-N-methyl-2-oxo-3-(5-oxo-4-(trifluoromethyl)-6,7-dihydro-5H-cyclopenta[b]pyridin-2-yl)imidazolidine-4-carboxamide] was tested, and the IC50 was over 5000 nM.
Work on CN(C(=O)[C@@H]1CNC(=O)N1c1cc(C(F)(F)F)c2c(n1)CC[C@]2(C)O)c1ccc(F)c(Cl)c1F [Compound 8a] yielded an IC50 of 500 to 5000 nM.
Work on CN(C(=O)[C@@H]1CNC(=O)N1c1cc(C(F)(F)F)c2c(n1)CC=C2)c1ccc(F)c(Cl)c1F (single isomer, unassigned) [Compound 9a] yielded an IC50 of at most 50 nM.
Compound CN(C(=O)[C@@H]1CNC(=O)N1c1cc(C(F)(F)F)c2ccoc2n1)c1ccc(F)c(Cl)c1F [Compound 15, (S)—N-(3-chloro-2,4-difluorophenyl)-N-methyl-2-oxo-3-(4-(trifluoromethyl)furo[2,3-b]pyridin-6-yl)imidazolidine-4-carboxamide] has an IC50 of 50 to 500 nM.
For CN(C(=O)[C@@H]1CNC(=O)N1c1cc(C(F)(F)F)c2c(n1)C(F)(F)CC2)c1ccc(F)c(Cl)c1F [Compound 12, (S)—N-(3-chloro-2,4-difluorophenyl)-3-(7,7-difluoro-4-(trifluoromethyl)-6,7-dihydro-5H-cyclopenta[b]pyridin-2-yl)-N-methyl-2-oxoimidazolidine-4-carboxamide], the IC50 was at most 50 nM.
Compound CN(C(=O)[C@@H]1CNC(=O)N1c1cc(C(F)(F)F)c2c(n1)OCC2)c1ccc(F)c(Cl)c1F [Compound 20, (S)—N-(3-chloro-2,4-difluorophenyl)-N-methyl-2-oxo-3-(4-(trifluoromethyl)-2,3-dihydrofuro[2,3-b]pyridin-6-yl)imidazolidine-4-carboxamide] has an IC50 of 50 to 500 nM.
Work on CN(C(=O)[C@@H]1CNC(=O)N1c1cc(C(F)(F)F)c2c(n1)CCCC2)c1ccc(F)c(Cl)c1F [Compound 5, (S)—N-(3-chloro-2,4-difluorophenyl)-N-methyl-2-oxo-3-(4-(trifluoromethyl)-5,6,7,8-tetrahydroquinolin-2-yl)imidazolidine-4-carboxamide] yielded an IC50 of 500 to 5000 nM.
In the case of CN(C(=O)[C@@H]1CNC(=O)N1c1cc(C(F)(F)F)c2ccccc2n1)c1ccc(F)c(Cl)c1F [Compound 17, (S)—N-(3-chloro-2,4-difluorophenyl)-N-methyl-2-oxo-3-(4-(trifluoromethyl)quinolin-2-yl)imidazolidine-4-carboxamide], the IC50 is reported as 50 to 500 nM.
Work on CN(C(=O)[C@@H]1CNC(=O)N1c1cc(SC(F)(F)F)c2ncsc2n1)c1ccc(F)c(Cl)c1F [Compound 44, (S)—N-(3-chloro-2,4-difluorophenyl)-N-methyl-2-oxo-3-(7-((trifluoromethyl)thio)thiazolo[5,4-b]pyridin-5-yl)imidazolidine-4-carboxamide] yielded an IC50 of 50 to 500 nM.
CN(C(=O)[C@@H]1CNC(=O)N1c1cc(C(F)(F)F)c2sccc2n1)c1ccc(F)c(Cl)c1F [Compound 4, (S)—N-(3-chloro-2,4-difluorophenyl)-N-methyl-2-oxo-3-(7-(trifluoromethyl)thieno[3,2-b]pyridin-5-yl)imidazoline-4-carboxamide] gave an IC50 of 50 to 500 nM.
For CN(C(=O)[C@@H]1CNC(=O)N1c1cc(C(F)(F)F)c2cccn2n1)c1ccc(F)c(Cl)c1F [Compound 27, (S)—N-(3-chloro-2,4-difluorophenyl)-N-methyl-2-oxo-3-(4-(trifluoromethyl)pyrrolo[1,2-b]pyridazin-2-yl)imidazolidine-4-carboxamide], the IC50 was at most 50 nM.
With CN(C(=O)[C@@H]1CNC(=O)N1c1nccn2ccnc12)c1ccc(F)c(Cl)c1F [Compound 41, (S)—N-(3-chloro-2,4-difluorophenyl)-3-(imidazo[1,2-a]pyrazin-8-yl)-N-methyl-2-oxoimidazolidine-4-carboxamide] the IC50 was over 5000 nM.
CSc1cc(N2C(=O)NC[C@H]2C(=O)N(C)c2ccc(F)c(Cl)c2F)nc2scnc12 [Compound 43, (S)—N-(3-chloro-2,4-difluorophenyl)-N-methyl-3-(7-(methylthio)thiazolo[5,4-b]pyridin-5-yl)-2-oxoimidazolidine-4-carboxamide] was tested, and the IC50 was 50 to 500 nM.
